This is an account of results in ChEMBL document CHEMBL3507680, “University of Dundee, Gates Library screen for HepG2 cell viability”.

The data set can be described thus: Human HepG2 cell viability assay in 384 well format. The class given is toxicity, cell-based. As to conditions: HepG2 cells, read-out: Inhibition. On the set-up: dose 125 nL, time 70.5 hour; cytotoxicity at 70.5 h: concentration not given beside the values.
As for `O=C(Cc1ccc(F)cc1)NCC(O)(c1cccs1)C1CC1` (configuration not stated), the cytotoxicity at 70.5 h is 13.2%.
To `O=C(NCCn1ccnc1)c1ccn(-c2ccccc2F)n1` belongs 13.4%; to `CO[C@H]1CC[C@H]2[C@H]1OCCN2Cc1ccc(F)c(F)c1`, 36.7%.
Regarding `O=C(CN1CCC2(CC1)NC(=O)c1cc(Br)ccc1N2)NC1CC1`, the cytotoxicity at 70.5 h was -1.52%.
To `C=Cc1cccc(CN(Cc2cnn(C)c2)C2CC2)c1` belongs -9.54%.
To `CN(Cc1ccn[nH]1)Cc1c[nH]nc1-c1ccc(F)cc1` belongs -3.15%; to `Cn1cnnc1C1CCN(C(=O)Cc2ccc3c(c2)OCCO3)CC1`, -2.32%; to `CC(C)c1cc(NC(=O)CN2CCC(N3CCNC3=O)CC2)on1`, -3.58%.
To `CCN(CC)CCn1c(=O)oc2ccccc21` belongs -3.03%; to `Cn1ncc(Cl)c1C(=O)N1CCC(c2nnsc2S(C)(=O)=O)CC1`, 7.94%.
In the case of `CC(C)c1noc(CN(Cc2ccccc2F)C2CC2)n1`, the cytotoxicity at 70.5 h is -12%.
As to `CCOC(=O)Cn1ccc(NC(=O)Cc2ccccc2F)n1`, the cytotoxicity at 70.5 h was -18.1%.
To `CCc1cnc(N2C[C@@H]3[C@@H](C(=O)NCC(C)C)CCS(=O)(=O)[C@@H]3C2)nc1` belongs -5.83%; to `CCc1cc(O)nc(C2CCCN2C(=O)COC)n1` (configuration not stated), -5.06%; to `COc1ccc(-c2cn3c(n2)CO[C@@H](CNCc2nccn2C)C3)cc1`, 6.44%.
The value for `O=C(C1CC(F)(F)C1)N1CC[C@H]2OCC[C@@]2(COCC2CC2)C1` was -1.76%; that for `Cc1noc([C@H]2COC[C@H]3CN(C(=O)Cc4ccsc4)C[C@H]32)n1` was -20.1%.
The value for `Cc1nnc2ccc(N3CCN(Cc4nccn4C)CC3)nn12` was 5.33%; that for `O=c1c(-c2ccnc(NC3CCCCC3)n2)cnc2sc(Cl)cn12` was -5.61%.
Consider `Cc1cc(C(=O)NC2(c3cccc(F)c3)CCOCC2)no1`, for which the cytotoxicity at 70.5 h was -7.78%.
On to `Fc1ccc(C2(c3noc(CCN4CCCCO4)n3)CCOC2)cc1` (configuration not stated), for which the cytotoxicity at 70.5 h is -11.7%.
To `O=C(NC1CC1)C1CNCCN1C(=O)CCOc1ccccc1` (configuration not stated) belongs -0.757%; to `COCC1CN(C(=O)Cc2cccs2)Cc2c1cnn2C` (configuration not stated), 21.2%; to `CCn1c(CN(C)CC(F)(F)F)nc2c(F)cccc21`, -0.949%.
As to `O=C(O)C1(n2ccc(-c3ccco3)n2)CCN(Cc2ccsc2)CC1`, the cytotoxicity at 70.5 h was -1.95%.
For `Cc1ccsc1C(=O)N1CCc2ncc(CN(C)C)n2CC1`, the cytotoxicity at 70.5 h is -7.39%.
To `CCc1noc(C2CCCCN2C(=O)c2cc(C)n(C)n2)n1` (configuration not stated) belongs 16.6%; to `Cn1cc(C[C@H]2[C@H](O)CCN2C(=O)C2CCOCC2)cn1`, -7.24%; to `CCCC1(CO)CCCN(C(=O)CN2CCN(CC)CC2)C1` (configuration not stated), -24.3%.
The value for `CN1CCCN(c2nc(C3CC3)ns2)CC1` was -3.92%; that for `CC1CN=C(N2CCN(C(=O)Nc3nc(-c4ccccc4)ns3)CC2)S1` (configuration not stated) was 9.01%.
On to `COc1ccc(C(C(=O)O)N2CCN(C3CCCC3)CC2)cc1OC` (configuration not stated), for which the cytotoxicity at 70.5 h amounted to 12.5%.
The value for `CCC(NC1Cc2ccccc2C1)c1ccc(S(C)(=O)=O)cc1` (configuration not stated) was -14.8%; that for `O=C(CSc1ccc2c(c1)OCCO2)NS(=O)(=O)C1CCCCC1` was 0.938%.
To `CN(C)C(=O)N1C[C@@H]2CC[C@H](C1)N(Cc1ccc3nsnc3c1)C2` belongs -5.73%; to `CC(C(=O)N(C)C)N1CCCN(C(=O)Oc2ccccc2)CC1` (configuration not stated), -9.71%.
Regarding `CC(NC(=O)CCC(=O)c1cccs1)c1nnc2n1CCCCC2` (configuration not stated), the cytotoxicity at 70.5 h is -15.6%.
The value for `Cc1cc(NCCn2cccn2)n2ncnc2n1` was 0.75%.
Turning to `Cn1cc(C2CCCN2Cc2csc(-c3ccsc3)n2)cn1` (configuration not stated), the cytotoxicity at 70.5 h is -0.271%.
The value for `NC(=O)CN1CCCC(c2ccnc(Nc3ncccn3)c2)C1` (configuration not stated) was 18.8%.
To `Cn1cccc1C(O)CNC(=O)c1ccc2nsnc2c1` (configuration not stated) belongs -14.5%; to `CNC(=O)c1cc2c(nc1NC(C)C)CCN(C(=O)NC(C)C)CC2`, -10.9%.
To `CCOCCCNC(=O)c1cc(C)nc(N2CCCCC2)n1` belongs -6.17%; to `O=C([C@H]1COC[C@H]2CN(C3CCCC3)C[C@H]21)N1CCCCO1`, -12.7%; to `COc1cc(N2CC[C@@H]3OCCN(C)[C@H]3CC2)ncn1`, -5.78%.
Consider `CC(C)CN1CCc2[nH]cnc2C12CCN(C(=O)c1ccccn1)CC2`, for which the cytotoxicity at 70.5 h was -3.63%.
As to `NS(=O)(=O)c1ccc(C(=O)N2CCCC2c2ccccc2)o1` (configuration not stated), the cytotoxicity at 70.5 h was -3.63%.
The value for `C1CCCN(c2nc(C3CC3)no2)CC1` was 1.49%; that for `CC(C)C(=O)N1CCC([C@@H]2C[C@H](C(F)F)n3ncnc3N2)CC1` was 9.09%.
On to `CO[C@@H]1CCN(S(=O)(=O)c2cn(C)cn2)[C@H]1Cc1cnn(C)c1`, for which the cytotoxicity at 70.5 h was -0.546%.
The value for `Nc1cc(-c2c[nH]nc2C2CCN(C(=O)C3CCCC3)C2)ccn1` (configuration not stated) was 5.65%.
The value for `Cc1ccc2c(cnn2CCC(=O)NCc2csc(C)n2)c1` was -14.7%.
The value for `Cc1cn2c(n1)CCC(NC(=O)CCOc1cccc(F)c1)C2` (configuration not stated) was -4.07%.
Turning to `Cc1cnccc1-c1cnn(CCNC(=O)c2cccnc2)c1C1CC1`, the cytotoxicity at 70.5 h is -5.95%.
To `CCNC(=O)NC(C)c1nc(-c2ccc(Br)cc2)no1` (configuration not stated) belongs -8.74%; to `CN1CCOC(C(=O)Nc2ccc3c(c2)nc(C(C)(C)C)n3C)C1` (configuration not stated), -2.12%; to `NC(=O)C(NC1CCN(Cc2ccc(F)cc2)CC1)c1ccccc1` (configuration not stated), -13.1%.
The value for `CNc1nc2c(s1)C(c1ccc(F)cc1Cl)CC(=O)N2` (configuration not stated) was 2.52%; that for `COc1c(CNC2CCc3c(Cl)cccc32)c(C)nn1C` (configuration not stated) was -12.4%; that for `Cc1cc(NC(=O)NCCc2cscn2)nn1C` was -4.59%.
The value for `CCS(=O)(=O)N1CCC(c2nnc(CN3CCOCC3)n2C)CC1` was -2.17%; that for `Cc1ccc2[nH]c(CO[C@H]3CN(c4ccc(C#N)cn4)C[C@H]3F)nc2c1` was -3.04%.
Consider `CN1CCC(N(C)CCC(=O)N2CCC(Oc3ccc(Cl)cc3)CC2)C1` (configuration not stated), for which the cytotoxicity at 70.5 h was -5.97%.
To `O=C(CN1CCCC1)N1CCCC(CNS(=O)(=O)Cc2ccccc2)C1` (configuration not stated) belongs 22.2%; to `O=C(c1ccc(-n2cnnc2)cc1Cl)N1CCCC(O)(CO)CC1` (configuration not stated), 15.6%; to `O=C(c1ccc(C2CCCN2)s1)N1CCN2CCC1CC2` (configuration not stated), -5.88%.
The value for `Cc1c(CC(=O)N2CCN(CC(F)(F)F)CC2)nnn1-c1ccccc1` was -11.3%; that for `CO[C@@H]1CCN(S(=O)(=O)c2cccs2)[C@H]1Cc1ccccc1` was -0.149%.
The value for `CC1CCN(CCNC(=O)c2ccccc2N2CCOCC2)CC1` was -7.45%; that for `O=C(Nc1cc(CSCCO)ccn1)c1ccc(Cl)o1` was -10.5%; that for `COc1ccc(Cl)cc1CC(=O)N1CCN(CC(C)(C)O)CC1` was -3.48%.
For the compound `O=C1CCCC2=C1C(c1cc(Cl)ccc1F)Nc1nonc1N2` (configuration not stated), the cytotoxicity at 70.5 h turned out to be 9.69%.
The value for `CN(C)C[C@H]1C[C@@H]2CN(C(=O)c3ccno3)C[C@@H]2O1` was -16.7%; that for `c1cc(CN2CCOC(Cn3cccn3)C2)c2c(c1)OCCO2` (configuration not stated) was -14.1%; that for `CN(CC(=O)N(C)C1CCN(CC2CCOC2)CC1)c1ccccc1` (configuration not stated) was -4.84%.
To `Cc1nc2c(c(=O)n1C)CN(C(=O)C1CCN(C(=O)C3CCC3)CC1)C2` belongs -1.69%; to `N#CCCN(c1ccc(F)cc1)S(=O)(=O)CC1CCCCO1` (configuration not stated), -1.6%.
To `Cc1cccc(C(=O)N2CC[C@@H]3[C@H]2CCC(=O)N3c2ccccc2)n1` belongs 17.8%.
Take `CN1CC2(CCCN(Cc3nnc(-c4ccccc4)o3)CC2)OC1=O` (configuration not stated): the cytotoxicity at 70.5 h is -15%.
To `CCc1cnc(CN(C)C2CCN(CC(=O)Nc3cc(C)on3)C2)o1` (configuration not stated) belongs 11.1%.
The value for `CCOc1ncccc1CNC(=O)N1CCC(n2cncn2)CC1` was -0.329%.
The value for `O=C(NC[C@]12COC[C@H]1CN(Cc1ccncc1)C2)c1ccco1` was -10.9%; that for `c1cncc(CN2CCCC3(COCCN(c4cncnc4)C3)C2)c1` (configuration not stated) was -6.01%; that for `COCCNC(=O)[C@H]1C[C@H]2OCC[C@H]2N(Cc2ccoc2)C1` was -3.39%.
Regarding `NC(=O)C1CCN(C(=O)NCc2ccc(-c3ccn[nH]3)cc2)CC1`, the cytotoxicity at 70.5 h is -6.11%.
To `O=C1CCc2cc(-c3csc(CCN4CCOC4=O)n3)c(F)cc2N1` belongs 24.3%; to `CC(C)NC(=O)CCNC(=O)c1cnc(Cc2ccc(F)cc2)s1`, -4.85%.
To `CCOc1cc(=O)n2c(c1C(=O)OCc1ccc(F)cc1)CCCC2` belongs -8.82%; to `CN(Cc1nnc2n1CCC2)C(=O)Cc1ccc2c(c1)CCC2`, -6.67%.
Consider `O=C(O)c1ccc2c(CN3CCOCC3)c[nH]c2c1`, for which the cytotoxicity at 70.5 h came out at 32.5%.
`CCCS(=O)(=O)N1CCC2(CN(c3ccsc3)C(=O)CN2C)C1` (configuration not stated): the cytotoxicity at 70.5 h was -3.38%.
On to `Cc1cnn(CCCNC(=O)C2CCCCN2Cc2cccnc2)c1` (configuration not stated), for which the cytotoxicity at 70.5 h was determined as 0.0952%.
To `COCCOc1ccc(Cl)c(C(=O)N2CCN(CCO)CC2)n1` belongs -2.95%.
Turning to `CCn1cnnc1CNC(=O)N(C)Cc1cccc(Cl)c1Cl`, the cytotoxicity at 70.5 h is -6.25%.
To `CCN1C(=O)C(C)(C)c2cc(NC(=O)c3ccco3)ccc21` belongs -7.99%; to `Cc1nc(CN2CCCC(NCc3csc(C(C)(C)C)n3)C2)no1` (configuration not stated), -6.65%; to `O=C(c1ccc(C2CCCO2)s1)N1CCN(c2ccccc2F)CC1` (configuration not stated), -4.35%.
